{"source": "patent US9512178B2", "about": "“Neurogenic brain-derived neurotrophic factor peptides” (Research Foundation for Mental Hygiene, Inc., priority 2012, dated 2016)", "tested_on": "BDNF and TrkB", "test": "Induction of BDNF and TrkB expression after pre-treatment with CHX or K252a", "format": "cell-based, mouse", "details": "0.1 μM, two days", "experimental": "Peptides were dissolved in water in serial dilutions of 10 mM, 1 mM, 100 μM and 10 μM from which the necessary amount was added directly to the culture medium to a final concentration of 0.05 μM, 1 μM, or 10 μM. The BDNF (Peprotech, NJ, USA) was used as a reference in concentrations of 20 ng/ml (0.79 nM) and 100 ng/ml (3.95 nM). Cycloheximide (CHX) (Sigma-Aldrich, St Louis, Mo., USA) was used for blocking protein synthesis. CHX original stock was 100 mg/ml (355.4 mM) in DMSO; from a second stock of 35.54 mM in DMSO, the dilutions were made to the final concentrations of 100 μM. The K252a (CALBIOCHEM/EMD) was used to inhibit the TrkB Receptor. From a stock of 100 μM in DMSO, K252a was diluted to a final working concentration of 200 nM. The E18 primary hippocampal cells were pre-treated with CHX or K252a 1 h prior to the addition of the peptides or BDNF and a time course of these treatments for 15 min, 60 min and 2 days was studied.\nTo evaluate whether the effect of B-5 and B-3 in induction of the expression of BDNF and TrkB was via the activation of the TrkB receptor and required signal transduction via TrkB and new protein synthesis, mouse embryonic E18 cultured hippocampal cells were pre-treated with the protein synthesis inhibitor, cycloheximide (CHX) or the Trk inhibitor K252a for 1 h, and then added Peptide B-5 at a concentration of 0.1 μM (the dose that gave the maximum induction of BDNF expression, FIGS. 5A and B) or BDNF 20 ng/ml as a positive control (FIG. 7C,D). A time course of these treatments was studied with Peptide B-5 or BDNF for 15 min, 60 min and two days."}
{"substance": "Ac-I-K-R-G-CONH2 [Peptide B-5]", "values": [{"measurement": "increase in the expression of BDNF in the presence of CHX", "setting": "CHX pre-treatment 1 h", "result": "inhibition of the increase"}, {"measurement": "increase in the expression of TrkB in the presence of CHX", "setting": "CHX pre-treatment 1 h", "result": "inhibition of the increase"}, {"measurement": "induction of the expression of BDNF in cells treated with K252a", "setting": "K252a pre-treatment 1 h", "result": "no more significant induction"}, {"measurement": "induction of the expression of TrkB in cells treated with K252a", "setting": "K252a pre-treatment 1 h", "result": "no more significant induction"}]}
